Entries after “also recorded” stand apart in the source; their conditions may differ.
What was measured:
Format in all cases: cell-based, human
[1] = test system: CD14 and CD1a on mature dendritic cells; assay: Surface expression of CD14 and CD1a by mDC co-cultured with ASCs (flow cytometry); settings: NAC-pretreated ASCs, donors A and B (FIG. 15)
Experimental: After differentiation in monoculture or co-culture in vitro (the differentiation conditions, including the cytokines used, concentrations and times of differentiation, are provided in Example 7), macrophages and mDC were harvested using 0.05% trypsin-EDTA for 10 minutes at 37° C., after supernatants were collected and frozen for future cytokine and/or HPLC analysis. After mDC were counted, they were distributed into 96-well V bottom plates for staining (Nunc #249570). Cells were incubated in Blue MACS buffer with 1% human serum for 15 minutes on ice, to block Fcγ receptor-mediated nonspecific antibody binding. Subsequently, cells were stained for 20 minutes on ice with the following antibody mixes (staining in 50 μL of 1:10 antibody dilution; except for CD64, which was 1:20 dilution): Cell viability was assessed by addition of 5 μL of 7AAD per well and staining for 10 minutes on ice, and samples were acquired in a BD Fortessa cytometer. Results were analysed in FSC Express software. The effect of NAC pretreatment (according to Example 2) on thawed ASC mediated effects on the surface expression of CD14 and CD1a on mature dendritic cells was also measured by flow cytometry. mDC are CD14-CD1a+. CD1a is the antigen-presenting molecule, and mediates the presentation of antigens by mDC to other cells of the immune system to activate their response. […]

ASCs [2] = assay: ASC identity assay by flow cytometry (CD29, CD73, CD90, CD105); settings: 6 mM NAC pretreatment; two weeks in culture post-thawing; donor A (FIG. 7)
ASCs [3] = assay: MTS assay after post-thaw seeding of ASCs pretreated with compounds prior to freezing; settings: for increase in mitochondrial activity compared to non-treated cells (MTS, 490 nm): pretreatment with 6 mM NAC
Experimental: ASCs from donor A were thawed by warming the vials in a 37° C. bath and diluting the freezing medium containing DMSO with fresh complete DMEM (DMEM/F-12 media—GlutaMAX™-I, Gibco, supplemented with 100 μg/mL penicillin/streptomycin and 10% FBS). Cells were centrifuged at 450 g for 6 minutes at room temperature to eliminate leftover DMSO and plated in T-175 flasks at 20.000 cells/cm^2 in complete DMEM.
A 600 mM stock of NAC (SIGMA) was prepared in Milli-Q water (Millipore). This stock was used for pre-treatment and post-treatment by adding directly 50 μL stock solution per well into 5 mL of medium, making a final concentration of 6 mM. For 2 mM, only 16.7 μL were added per well, and in the case of 12 mM, 100 μL of stock were added. DMSO was used as the vehicle for sc79 and LY294.
Following the pretreatment step, the medium was removed, the cells were washed with PBS and trypsinized using trypsin-EDTA 0.25% (ThermoFisher) for 8 minutes at 37° C. After trypsin inactivation with complete DMEM, cells were harvested and centrifuged prior to resuspension in freezing medium (FBS with 10% DMSO), and frozen into 500,000 or 1 million cells per vial and stored in liquid nitrogen for further use. Specifically, the cells were frozen at −80° C. for 24 hours in a Cool Cell® device (BioCision) and then transferred to a liquid nitrogen storage container. All experiments were performed in incubators and 37° C., 5% CO2.
[…] The CellTiter 96° Aqueous One Solution Cell Proliferation Assay is a colorimetric method for determining the number of viable cells. The CellTiter 96° Aqueous One Solution reagent contains a tetrazolium compound [3-(4,5-dimethylthiazol-2-yl)-5-(3-carboxymethoxyphenyl)-2-(4-sulfophenyl)-2H-tetrazolium, MTS] and an electron coupling reagent (phenazine ethosulfate; PES). The MTS tetrazolium compound is bioreduced by cells—presumably by NADPH or NADH produced by dehydrogenase enzymes in metabolically active cells—into a coloured formazan product that is soluble in tissue culture medium.
Briefly, 40 μL of the reagent was added to 200 μL of complete DMEM in each well and absorbance was measured after 2-3 hours at 490 nm using a […]. Each condition was measured in 6 technical repeats. The MTS assay results are presented as percentage of absorbance at 490 nm relative to the non-treated (NT) cells.

ASCs [4] = assay: ASC proliferation assay: viable cell density (trypan blue count) after thaw of pretreated ASCs; settings: for number of viable cells: ASCs pretreated with 6 mM NAC before freezing
Experimental: ASCs from donor A were thawed by warming the vials in a 37° C. bath and diluting the freezing medium containing DMSO with fresh complete DMEM (DMEM/F-12 media—GlutaMAX™-I, Gibco, supplemented with 100 μg/mL penicillin/streptomycin and 10% FBS). Cells were centrifuged at 450 g for 6 minutes at room temperature to eliminate leftover DMSO and plated in T-175 flasks at 20.000 cells/cm^2 in complete DMEM. 24 hours post-thaw, the cells were treated with the suitable concentrations of the compounds indicated in the table below for 24 hours: Following the pretreatment step, the medium was removed, the cells were washed with PBS and trypsinized using trypsin-EDTA 0.25% (ThermoFisher) for 8 minutes at 37° C. After trypsin inactivation with complete DMEM, cells were harvested and centrifuged prior to resuspension in freezing medium (FBS with 10% DMSO), and frozen into 500,000 or 1 million cells per vial and stored in liquid nitrogen for further use. Specifically, the cells were frozen at −80° C. for 24 hours in a Cool Cell® device (BioCision) and then transferred to a liquid nitrogen storage container. All experiments were performed in incubators and 37° C., 5% CO2. ASCs pretreated with NAC according to the methods described in Example 2 from donor A or donor B final drug substance (FDS) were thawed by warming the vials in a 37° C. bath and quickly diluting the freezing medium containing DMSO (FBS with 10% DMSO) with fresh complete DMEM. Cells were centrifuged at 450 g for 6 minutes at room temperature to eliminate leftover DMSO, and plated in P6-well plates (Falcon #353046) in triplicates at […] in 5 mL of complete DMEM per well. Cells were washed with 1×PBS and trypsinized using trypsin-EDTA 0.25% (ThermoFisher) for 8 minutes at 37° C. After trypsin inactivation using complete DMEM, cells were harvested, centrifuged and resuspended in fresh DMEM; triplicate wells were unified as a single sample for counting purposes. Cells were counted in triplicates at 24 hours, 96 hours and 7 days after plating using an Invitrogen Countess Automated Cell Counter (Invitrogen) and adding trypan blue as a viability stain (FIG. 4A). The calculation of cell density was done using the count of viable ASC (negative for trypan blue) per surface unit (cm^2).

## CC(=O)N[C@@H](CS)C(=O)O [NAC, N-Acetylcysteine]
[1]
  ASC-induced formation of CD14+CD1a- regulatory mDC population: does not alter the ability of thawed ASCs to induce the formation of this mDC regulatory population; also recorded: did not modify this effect
ASCs [2]
  expression of ASC identity markers CD29, CD73, CD90 and CD105: does not alter the expression of ASC identity markers
ASCs [3]; 6 mM NAC pretreatment for 24 hours, 24 hours post-seeding after thaw (FIG. 2)
  cell number by MTS assay versus non-treated: increased cell numbers
ASCs [3]; 6 mM NAC pretreatment, FIGS. 4B & C (24 and 96 hours post-thaw)
  increase of mitochondrial activity after NAC pretreatment (MTS): 15-20%
ASCs [3]; 24 hours culture post-thaw (FIG. 4B)
  increase in mitochondrial activity compared to non-treated cells (MTS, 490 nm): greater than 35%
ASCs [3]; 96 hours culture post-thaw (FIG. 4C)
  increase in mitochondrial activity compared to non-treated cells (MTS, 490 nm): greater than 15%
ASCs [4]; 6 mM NAC pretreatment, 24 hours and 4 days post-thaw
  number of cells counted versus non-treated control: increased the number of cells counted at 24 hours and 4 days
ASCs [4]; 6 mM NAC pretreatment, 24 hours post-seeding after thaw (FIG. 3)
  cell number by cell density versus non-treated: increased cell numbers
ASCs [4]; 6 mM NAC pretreatment, donor A and donor B, from 24 hours post-seeding, maintained for a week (FIG. 5)
  cell numbers versus non-treated, two donors: increase in cell numbers
ASCs [4]; ASCs pretreated with 6 mM NAC (FIG. 4A), non-treated cells not recovered at 1 day
  post-thaw recovery (viable adhered cell number over seeding density): recovered after 1 day of post-thaw culture
ASCs [4]; 1 day of culture post-thaw (FIG. 4A)
  number of viable cells: ~5,000 cells/cm^2
ASCs [4]; 4 days of culture post-thaw (FIG. 4A)
  number of viable cells: ~12,500 cells/cm^2
ASCs [4]; ASCs pretreated with 6 mM NAC, between days 1 and 4 of post-thaw culture
  improvement of growth rate relative to non-treated cells: about 1.25 fold
ASCs [4]; ASCs pretreated with 6 mM NAC, between days 1 and 4 of post-thaw culture (FIG. 4A)
  growth rate: approximately 2500 cells/cm^2/day

From patent US20220104481A1, “CRYOPRESERVATION OF STEM CELLS” (TiGenix, S.A.U., priority 2019, published 2022)
